What was measured:
SAOS-2 = test: Anticancer activity against p53-deleted human Saos2 cells assessed as inhibition of cell viability measured after 5 days by MTT assay; conditions: SAOS-2, 120 h
U2OS = test: Anticancer activity against human U2OS cells expressing wild-type p53 assessed as inhibition of cell viability measured after 5 days by MTT assay; conditions: 120 h

EC50 (U2OS): 40 µM
SMILES: CC1(C)[C@H]2CC[C@@]1(C)C(NC(=O)C(c1c(C(=O)O)[nH]c3cc(Cl)ccc13)N(C=O)Cc1ccc(OCc3ccccc3Br)cc1)C2 (some centres not stated)
EC50 (SAOS-2): 60 µM

Reference: ChEMBL document CHEMBL4359887, “Hitting on the move: Targeting intrinsically disordered protein states of the MDM2-p53 interaction” (Eur J Med Chem, 2019)
